In US5438052A, “Cephalosporin derivatives” (Hoffmann-La Roche Inc., priority 1991, dated 1995):
In brackets after ≈: the same amount, converted by molar mass. Read-outs that look alike come from different tables or passages of the source.

Key:
[1] = system: S. pneumoniae BA; assay: Minimum inhibitory concentration in vitro, agar dilution method; type: cell-based; conditions: Streptococcus pneumoniae
Excerpt: (§1) 1. Minimum Inhibitory Concentration in vitro
(§2) The activities ascertained, minimum inhibitory concentration (MIC) in μg/ml, are compiled in Table 1 hereinafter: […]

[2] = system: E. cloacae 908R; assay: as above; type: cell-based; conditions: Enterobacter cloacae
Excerpt: as §1, §2

[3] = system: K. oxytoca 1082; assay: as above; type: cell-based; conditions: Klebsiella oxytoca
Excerpt: as §1, §2

[4] = system: E. coli 25922; assay: as above; type: cell-based; conditions: Escherichia coli
Excerpt: as §1, §2

[5] = system: P. aeruginosa 799/61; assay: as above; type: cell-based; conditions: Pseudomonas aeruginosa
Excerpt: as §1, §2

[6] = system: C. freundii 902; assay: as above; type: cell-based; conditions: Citrobacter freundii
Excerpt: as §1, §2

[7] = system: P. aeruginosa 27853; assay: as above; type: cell-based; conditions: Pseudomonas aeruginosa
Excerpt: as §1, §2

[8] = system: P. aeruginosa BA; assay: as above; type: cell-based; conditions: Pseudomonas aeruginosa
Excerpt: as §1, §2

[9] = system: P. aeruginosa MK1184; assay: as above; type: cell-based; conditions: Pseudomonas aeruginosa
Excerpt: as §1, §2

[10] = system: K. pneumoniae 418; assay: as above; type: cell-based; conditions: Klebsiella pneumoniae
Excerpt: as §1, §2

[11] = system: P. aeruginosa 799/WT; assay: as above; type: cell-based; conditions: Pseudomonas aeruginosa
Excerpt: as §1, §2

[12] = system: P. vulgaris 1028; assay: as above; type: cell-based; conditions: Proteus vulgaris
Excerpt: as §1, §2

[13] = system: E. cloacae 908SSi; assay: as above; type: cell-based; conditions: Enterobacter cloacae
Excerpt: as §1, §2

[14] = system: S. aureus 6538; assay: as above; type: cell-based; conditions: Staphylococcus aureus
Excerpt: as §1, §2

[15] = system: P. mirabilis 2117; assay: as above; type: cell-based; conditions: Proteus mirabilis
Excerpt: as §1, §2

[16] = system: S. marcescens 69438; assay: as above; type: cell-based; conditions: Serratia marcescens
Excerpt: as §1, §2

[17] = system: S. pyogenes 15; assay: as above; type: cell-based; conditions: Streptococcus pyogenes
Excerpt: as §1, §2

[18] = system: E. coli 25922; assay: Experimental systemic septicaemia in the mouse; type: in vivo; conditions: 96 h
Summary of the method: (§3)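 ED50 in mg/kg s.c. is the Probit-derived dose protecting half the mice, judged on survival 4 days after i.p. challenge (about 5-100× 48 h LD50) in 16-20 g albino mice, 5 per group. Dosing was s.c. in 2% Tween 80 at 1 and 3 h, plus 5 h for P. aeruginosa.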

[19] = system: Pseudomonas aeruginosa BA; assay: Experimental systemic septicaemia in the mouse; type: in vivo; conditions: sc, 96 h
Summary of the method: as §3

[20] = system: S. aureus Schoch; assay: Experimental systemic septicaemia in the mouse; type: in vivo; conditions: Staphylococcus aureus, sc, 96 h
Summary of the method: as §3

[21] = system: E. cloacae P99; assay: Minimum inhibitory concentration in vitro, agar dilution method; type: cell-based; conditions: Enterobacter cloacae
Excerpt: as §1, §2

[22] = system: E. aerogenes CF153; assay: as above; type: cell-based; conditions: Klebsiella aerogenes; E. aerogenes CF153, agar dilution; read-out: MIC
Excerpt: as §1, §2

[23] = E. cloacae 908R, agar dilution, read-out: MIC
[24] = K. oxytoca 1082, agar dilution, read-out: MIC
[25] = E. coli 25922, agar dilution, read-out: MIC
[26] = P. aeruginosa 799/61, agar dilution, read-out: MIC
[27] = C. freundii 902, agar dilution, read-out: MIC
[28] = P. aeruginosa 27853, agar dilution, read-out: MIC
[29] = P. aeruginosa BA, agar dilution, read-out: MIC
[30] = P. aeruginosa MK1184, agar dilution, read-out: MIC
[31] = K. pneumoniae 418, agar dilution, read-out: MIC
[32] = P. aeruginosa 799/WT, agar dilution, read-out: MIC
[33] = P. vulgaris 1028, agar dilution, read-out: MIC
[34] = E. cloacae 908SSi, agar dilution, read-out: MIC
[35] = S. aureus 6538, agar dilution, read-out: MIC
[36] = P. mirabilis 2117, agar dilution, read-out: MIC
[37] = S. marcescens 69438, agar dilution, read-out: MIC
[38] = S. pyogenes 15, agar dilution, read-out: MIC
[39] = Escherichia coli, sc, E. coli 25922, albino mice, s.c. 1 and 3 hours after infection, survival after 4 days, read-out: ED50
[40] = P. aeruginosa BA, albino mice, s.c. 1, 3 and 5 hours after infection, survival after 4 days, read-out: ED50

Compound	MIC ([2]; 908R) [µg/mL]	MIC [3]; 1082 [µg/mL]	MIC [4]; 25922 [µg/mL]	MIC ([5]; 799/61) [µg/mL]	MIC [6]; 902 [µg/mL]	MIC [7]; 27853 [µg/mL]	MIC [8] [µg/mL]	MIC ([9]; MK1184) [µg/mL]	MIC [10]; 418 [µg/mL]	MIC ([11]; 799/WT) [µg/mL]	MIC [12]; 1028 [µg/mL]	MIC ([13]; 908SSI) [µg/mL]	MIC [14]; 6538 [µg/mL]	MIC [15]; 2117 [µg/mL]	MIC [16]; 69438 [µg/mL]	MIC [17]; 15 [µg/mL]	ED50 ([18]; Escherichia coli, 25922, sc) [mg/kg]	ED50 [19] [mg/kg]	ED50 [20] [mg/kg]	MIC [2, 23] [µg/mL]	other results
Cc1cc(SCC2=C(C(=O)[O-])N3C(=O)[C@@H](NC(=O)/C(=N\OC(C)(C)C(=O)NNC(=O)c4ccc(O)c(O)c4)c4csc(N)n4)[C@H]3SC2)n2nc(CNS(=O)(=O)c3ccc(O)c(O)c3)nc2n1.[Na+] [Example 42, (6R,7R)-7-[(Z)-2-(2-amino-4-thiazolyl)-2-[[1-[3-(3,4-dihydroxybenzoyl)carbazoyl]-1-methylethoxy]imino]acetamido]-3-[[[2-[(3,4-dihydroxybenzenesulphonamido)methyl]-5-methyl-s-triazolo[1,5-a]pyrimidin-7-yl]thio]methyl]-8-oxo-5-thia-1-azabicyclo[4.2.0]oct-2-ene-2-carboxylic acid sodium salt (1:1)]	0.5	< 0.1	< 0.1	< 0.1	< 0.1	0.25	< 0.1	< 0.1	< 0.1	< 0.1	0.25	4	32	0.12	0.12	8	0.005	0.017	10		MIC [1]: 4 µg/mL
Cc1ncc(-c2ccc(O)c(O)c2)c(SCC2=C(C(=O)O)N3C(=O)[C@@H](NC(=O)/C(=N\OC(C)(C)C(=O)NO)c4csc(N)n4)[C@H]3SC2)n1 [Example 19b]																				2 (≈ 2.79 µM)	MIC [3, 24]: 0.5 µg/mL (≈ 0.698 µM); MIC [4, 25]: < 0.1 µg/mL; MIC [5, 26]: < 0.1 µg/mL; MIC [21]: 8 µg/mL (≈ 11.2 µM); MIC [6, 27]: < 0.1 µg/mL; MIC [7, 28]: 0.25 µg/mL (≈ 0.349 µM); MIC [8, 29]: 0.5 µg/mL (≈ 0.698 µM); MIC [9, 30]: 8 µg/mL (≈ 11.2 µM); MIC [10, 31]: < 0.1 µg/mL; MIC [11, 32]: 0.25 µg/mL (≈ 0.349 µM); MIC [12, 33]: < 0.1 µg/mL; MIC [13, 34]: 2 µg/mL (≈ 2.79 µM); MIC [22]: < 0.1 µg/mL; MIC [14, 35]: 16 µg/mL (≈ 22.3 µM); MIC [15, 36]: 0.25 µg/mL (≈ 0.349 µM); MIC [16, 37]: < 0.1 µg/mL; MIC [17, 38]: 0.25 µg/mL (≈ 0.349 µM); ED50 [18, 39]: 0.78 mg/kg; ED50 [19, 40]: > 3 mg/kg
Cc1cc(SCC2=C(C(=O)[O-])N3C(=O)[C@@H](NC(=O)/C(=N\OCc4ccc(O)c(O)c4)c4csc(N)n4)[C@H]3SC2)n2nc(COC(=O)c3ccc(O)c(O)c3)nc2n1.[Na+] [Example 8, (6R,7R)-7-[(Z)-2-(2-amino-4-thiazolyl)-2-[[(3,4-dihydroxybenzyl)oxy]imino]acetamido]-3-[[[2-[[(3,4-dihydroxybenzoyl)oxy]methyl]-5-methyl-s-triazolo[1,5-a]pyrimidin-7-yl]thio]methyl]-8-oxo-5-thia-1-azabicyclo[4.2.0]oct-2-ene-2-carboxylic acid sodium salt (1:1)]	0.25	< 0.1	< 0.1	< 0.1	< 0.1	0.12	< 0.1	< 0.1	< 0.1	< 0.1	< 0.1	2	4	< 0.1	0.12	1	< 0.1	0.45	2		MIC [21]: 8 µg/mL
Cc1cc(SCC2=C(C(=O)O)N3C(=O)[C@@H](NC(=O)/C(=N\OC(C)(C)C(=O)NNC(=O)c4ccc(O)c(O)c4)c4csc(N)n4)[C@H]3SC2)n2nc(CS(=O)(=O)c3ccc(O)c(O)c3)nc2n1 [Example 44]																				1 (≈ 1.03 µM)	MIC ([1]; S. pneumoniae BA, agar dilution, read-out: MIC): 1 µg/mL (≈ 1.03 µM); MIC [3, 24]: < 0.1 µg/mL; MIC [4, 25]: < 0.1 µg/mL; MIC [5, 26]: < 0.1 µg/mL; MIC [6, 27]: 0.25 µg/mL (≈ 0.258 µM); MIC [7, 28]: 0.5 µg/mL (≈ 0.515 µM); MIC [8, 29]: < 0.1 µg/mL; MIC [9, 30]: 0.12 µg/mL (≈ 0.124 µM); MIC [10, 31]: < 0.1 µg/mL; MIC [11, 32]: 0.12 µg/mL (≈ 0.124 µM); MIC [12, 33]: 0.25 µg/mL (≈ 0.258 µM); MIC [13, 34]: 8 µg/mL (≈ 8.25 µM); MIC [14, 35]: 32 µg/mL (≈ 33 µM); MIC [15, 36]: 0.25 µg/mL (≈ 0.258 µM); MIC [16, 37]: 0.25 µg/mL (≈ 0.258 µM); MIC [17, 38]: 8 µg/mL (≈ 8.25 µM); ED50 [18, 39]: < 0.05 mg/kg; ED50 [19, 40]: < 0.01 mg/kg; ED50 ([20]; S. aureus Schoch, albino mice, s.c. 1 and 3 hours after infection, survival after 4 days, read-out: ED50): > 12 mg/kg
